Laboratory results from patent publication US11390604B2 (Hoffmann-La Roche Inc., priority 2019, dated 2022).
Structures can show the parent of a compound that is named as a salt.

Each compound was assayed on Acinetobacter baumannii ATCC 17961 (assay: Antimicrobial susceptibility testing: 90% growth inhibitory concentration (IC90) determination). Conditions: ATCC17961, Acinetobacter baumannii ATCC 17961, Iso-Sensitest broth, read-out: ATCC 17961 IC90.
Assay type: cell-based
In short: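 Broth microdilution in Iso-Sensitest medium, twofold series (e.g. 50 to 0.097 μM final), ~5×10^5 CFU/ml inoculum, 35±2 °C. OD600 read every 20 min over 16 h. IC90 derived from growth inhibition during logarithmic phase.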
With `CCn1cc(-c2cnc(C(=O)Nc3ccc(C(=O)N4CCN(C(=O)CN)CC4)c(Cl)c3)n2C)c(C(F)(F)F)n1` [Example 330, N-[4-[4-(2-aminoacetyl)piperazine-1-carbonyl]-3-chlorophenyl]-5-[1-ethyl-3-(trifluoromethyl)pyrazol-4-yl]-1-methylimidazole-2-carboxamide;hydrochloride] the IC90 was 421 nM. With `Cn1c(-c2cn(CCOC(F)(F)F)nc2C(F)(F)F)cnc1C(=O)Nc1ccc(C(=O)N2CCN(C(=O)C3CCNCC3)CC2)c(Cl)c1` [Example 332, N-(3-chloro-4-(4-(piperidine-4-carbonyl)piperazine-1-carbonyl)phenyl)-1-methyl-5-(1-(2-(trifluoromethoxy)ethyl)-3-(trifluoromethyl)-1H-pyrazol-4-yl)-1H-imidazole-2-carboxamide hydrochloride] the IC90 was 422 nM. In the case of `Cn1c(-c2cn(C3CC3)nc2C(F)(F)F)cnc1C(=O)Nc1ccc(C(=O)N[C@H]2[C@@H]3CN(C(=O)N[C@@H]4CCC[C@@H]4N)C[C@@H]32)c(Cl)c1` [Example 334, exo-N-((1R,2S)-2-aminocyclopentyl)-6-(2-chloro-4-(5-(1-cyclopropyl-3-(trifluoromethyl)-1H-pyrazol-4-yl)-1-methyl-1H-imidazole-2-carboxamido)benzamido)-3-azabicyclo[3.1.0]hexane-3-carboxamide formate], the IC90 was 423 nM. Work on `Cn1c(-c2cn(CC3CCC3)nc2C(F)(F)F)cnc1C(=O)Nc1ccc(C(=O)N2CCN(C(=O)[C@@H]3C[C@@H](O)CN3)CC2)c(Cl)c1` [Example 335, N-(3-chloro-4-(4-((2S,4R)-4-hydroxypyrrolidine-2-carbonyl)piperazine-1-carbonyl)phenyl)-5-(1-(cyclobutylmethyl)-3-(trifluoromethyl)-1H-pyrazol-4-yl)-1-methyl-1H-imidazole-2-carboxamide bis(2,2,2-trifluoroacetate)] yielded an IC90 of 426 nM. `Cn1c(-c2cn(CC(F)F)nc2C(F)(F)F)cnc1C(=O)Nc1ccc(C(=O)N2CCNCC2)c(Cl)c1` [Example 336, N-(3-chloro-4-(piperazine-1-carbonyl)phenyl)-5-(1-(2,2-difluoroethyl)-3-(trifluoromethyl)-1H-pyrazol-4-yl)-1-methyl-1H-imidazole-2-carboxamide formate] showed an IC90 of 426 nM. Work on `Cn1c(-c2cn(C3CC3)nc2C(F)(F)F)cnc1C(=O)Nc1ccc(C(=O)N2CCN(S(=O)(=O)N3CCNCC3)CC2)c(Cl)c1` [Example 338, N-(3-chloro-4-(4-(piperazin-1-ylsulfonyl)piperazine-1-carbonyl)phenyl)-5-(1-cyclopropyl-3-(trifluoromethyl)-1H-pyrazol-4-yl)-1-methyl-1H-imidazole-2-carboxamide formate] yielded an IC90 of 427 nM. `Cn1c(-c2cn(C3CC3)nc2C(F)(F)F)cnc1C(=O)Nc1ccc(C(=O)N2CCC(C(=O)N[C@H]3C[C@H](N)C3)CC2)c(Cl)c1` [Example 339, N-(3-aminocyclobutyl)-1-[2-chloro-4-[[5-[1-cyclopropyl-3-(trifluoromethyl)pyrazol-4-yl]-1-methyl-imidazole-2-carbonyl]amino]benzoyl]piperi-dine-4-carboxamide; formic acid] gave an IC90 of 427 nM. `CCc1cc(NC(=O)c2ncc(-c3cn(CC#N)nc3C(F)(F)F)n2C)ccc1C(=O)N1CCN(C(=O)[C@H]2C[C@H](N)C2)CC1` [Example 340, N-[4-[4-(3-aminocyclobutanecarbonyl)piper-azine-1-carbonyl]-3-ethyl-phenyl]-5-[1-(cyanomethyl)-3-(trifluoromethyl)pyrazol-4-yl]-1-methyl-imidazole-2-carboxamide; formic acid] showed an IC90 of 428 nM. With `Cn1c(-c2cn(C3CC3(F)F)nc2C(F)(F)F)cnc1C(=O)Nc1ccc(C(=O)NC2CNCC2O)c(Cl)c1` (centres unmarked) [Example 341, N-(3-chloro-4-((4-hydroxypyrrolidin-3-yl)carbamoyl)phenyl)-5-(1-(2,2-difluorocyclopropyl)-3-(trifluoromethyl)-1H-pyrazol-4-yl)-1-methyl-1H-imidazole-2-carboxamide formate] the IC90 was 430 nM. In the case of `C#CCn1cc(-c2cnc(C(=O)Nc3ccc(S(C)(=O)=NCCCN)c(C)c3)n2C)c(C(F)(F)F)n1` (centres unmarked) [Example 342, N-[4-[N-(3-aminopropyl)-S-methyl-sulfonimidoyl]-3-methyl-phenyl]-1-methyl-5-[1-prop-2-ynyl-3-(trifluoromethyl)pyrazol-4-yl]imidazole-2-carboxamide; formic acid], the IC90 was 442 nM. For `Cn1c(-c2cn(CC#N)nc2C(F)(F)F)cnc1C(=O)Nc1ccc(C(=O)N2CCN(C(=O)NCC3(O)CNC3)CC2)c(Cl)c1` [Example 343, 4-[2-chloro-4-[[5-[1-(cyanomethyl)-3-(trifluoromethyl)pyrazol-4-yl]-1-methyl-imidazole-2-carbonyl]amino]benzoyl]-N-[(3-hydroxyazetidin-3-yl)methyl]piperazine-1-carboxamide; formic acid], the IC90 was 442 nM. Compound `Cn1c(-c2cn(C3CC3(F)F)nc2C(F)(F)F)cnc1C(=O)Nc1ccc(C(=O)NC2(C)CCNCC2)c(Cl)c1` (centres unmarked) [Example 344, N-(3-chloro-4-((4-methylpiperidin-4-yl)carbamoyl)phenyl)-5-(1-(2,2-difluorocyclopropyl)-3-(trifluoromethyl)-1H-pyrazol-4-yl)-1-methyl-1H-imidazole-2-carboxamide formate] has an IC90 of 443 nM. Compound `Cn1c(-c2cn(CC#N)nc2C(F)(F)F)cnc1C(=O)Nc1ccc(C(=O)NCCCCN)c(Cl)c1` [Example 345, N-(4-((4-aminobutyl)carbamoyl)-3-chlorophenyl)-5-(1-(cyanomethyl)-3-(trifluoromethyl)-1H-pyrazol-4-yl)-1-methyl-1H-imidazole-2-carboxamide tris(2,2,2-trifluoroacetate)] has an IC90 of 444 nM. `Cn1c(-c2cn(C3CC3)nc2C(F)(F)F)cnc1C(=O)Nc1ccc(C(=O)N2CCN(C(=O)[C@H]3CCN3)CC2)c(Cl)c1` [Example 348, (R)-N-(4-(4-(azetidine-2-carbonyl)piperazine-1-carbonyl)-3-chlorophenyl)-5-(1-cyclopropyl-3-(trifluoromethyl)-1H-pyrazol-4-yl)-1-methyl-1H-imidazole-2-carboxamide hydrochloride] showed an IC90 of 447 nM. `Cn1c(-c2cn(C3CC3)nc2C(F)(F)F)cnc1C(=O)Nc1ccc(C(=O)N2CCN(C(=O)N3CC[C@@H](N)C3)CC2)c(Cl)c1` [Example 349, (R)-N-(4-(4-(3-aminopyrrolidine-1-carbonyl)piperazine-1-carbonyl)-3-chlorophenyl)-5-(1-cyclopropyl-3-(trifluoromethyl)-1H-pyrazol-4-yl)-1-methyl-1H-imidazole-2-carboxamide formate] gave an IC90 of 449 nM. With `Cn1c(-c2cn(CC#N)nc2C(F)(F)F)cnc1C(=O)Nc1ccc(C(=O)N[C@H]2CC[C@@H](N)CC2)c(Cl)c1` [Example 351, N-[4-[(4-aminocyclohexyl)carbamoyl]-3-chlorophenyl]-5-[1-(cyanomethyl)-3-(trifluoromethyl)pyrazol-4-yl]-1-methylimidazole-2-carboxamide;2,2,2-trifluoroacetic acid] the IC90 was 453 nM. `Cn1c(-c2cn(CCC3CC3)nc2C(F)(F)F)cnc1C(=O)Nc1ccc(C(=O)N2CCN(C(=O)C3CCNCC3)CC2)c(Cl)c1` [Example 352, N-(3-chloro-4-(4-(piperidine-4-carbonyl)piperazine-1-carbonyl)phenyl)-5-(1-(2-cyclopropylethyl)-3-(trifluoromethyl)-1H-pyrazol-4-yl)-1-methyl-1H-imidazole-2-carboxamide hydrochloride] was tested, and the IC90 was 458 nM. `Cc1cc(NC(=O)c2ncc(-c3cn(CC(F)F)nc3C(F)(F)F)n2C)ccc1S(C)(=O)=NCCCN` (centres unmarked) [Example 353, N-[4-[N-(3-aminopropyl)-S-methyl-sulfonimidoyl]-3-methyl-phenyl]-5-[1-(2,2-difluoroethyl)-3-(trifluoromethyl)pyrazol-4-yl]-1-methyl-imidazole-2-carboxamide; formic acid] gave an IC90 of 462 nM. `CC1CN(C(=O)N[C@H]2C[C@@H](NC(=O)c3ccc(NC(=O)c4ncc(-c5cn(CC#N)nc5C(F)(F)F)n4C)cc3Cl)C2)CCN1` (some centres unmarked) [Example 354, N-[3-[[2-chloro-4-[[5-[1-(cyanomethyl)-3-(trifluoromethyl)pyrazol-4-yl]-1-methyl-imidazole-2-carbonyl]amino]benzoyl]amino]cyclobutyl]-3-methyl-piperazine-1-carboxamide; formic acid] showed an IC90 of 463 nM. Compound `Cn1c(-c2cn(CC#N)nc2C(F)(F)F)cnc1C(=O)Nc1ccc(C(=O)N2CCN(C(=O)[C@H]3C[C@H](N)C3)CC2)c(Cl)c1` [Example 355, N-[4-[4-(3-aminocyclobutanecarbonyl)piper-azine-1-carbonyl]-3-chlorophenyl]-5-[1-(cyanomethyl)-3-(trifluoromethyl)pyrazol-4-yl]-1-methylimidazole-2-carboxamide;trihydrochloride] has an IC90 of 464 nM. `CCc1cc(NC(=O)c2ncc(-c3cn(CC(F)F)nc3C(F)(F)F)n2C)ccc1C(=O)NCCCCCN` [Example 356, N-(4-((5-aminopentyl)carbamoyl)-3-ethylphenyl)-5-(1-(2,2-difluoroethyl)-3-(trifluoromethyl)-1H-pyrazol-4-yl)-1-methyl-1H-imidazole-2-carboxamide hydrochloride] gave an IC90 of 466 nM. `CN(C)CCN(C)C1CCN(C(=O)c2ccc(NC(=O)c3ncc(-c4cn(C5CC5)nc4C(F)(F)F)n3C)cc2Cl)CC1` [Example 357, N-(3-chloro-4-(4-((2-(dimethylamino)ethyl)(methyl)amino)piperidine-1-carbonyl)phenyl)-5-(1-cyclopropyl-3-(trifluoromethyl)-1H-pyrazol-4-yl)-1-methyl-1H-imidazole-2-carboxamide] showed an IC90 of 466 nM. For `Cn1c(-c2cn(CC#N)nc2C(F)(F)F)cnc1C(=O)Nc1ccc(C(=O)N[C@H]2C[C@@H](NC(=O)N3CCC(CN)C3)C2)c(Cl)c1` (some centres unmarked) [Example 359, N-[4-[[3-[[3-(aminomethyl)pyrrolidine-1-carbonyl]amino]cyclobutyl]car-bamoyl]-3-chloro-phenyl]-5-[1-(cyanomethyl)-3-(trifluoromethyl)pyrazol-4-yl]-1-methyl-imidazole-2-carboxamide; formic acid], the IC90 was 467 nM.
